Data on 4 molecules can be found in US20240277899A1, “PRODUCTION METHOD OF MYOCARDIAL CELL LAYER, MYOCARDIAL CELL LAYER, AND USE THEREOF” (FUJIFILM Corporation, priority 2021, published 2024).

For the data set, the system named is myocardial cell layer of myocardial cell C (iCell Cardiomyocytes^2, purity 80%). Put plainly: Drug screening: electrical signal of spontaneous beating of the myocardial cell layer measured by MEA (QT interval, beat rate, cardiotoxicity). As to conditions: for myocardial beat rate reaction, TW compared with Control: TW layer versus Control layer; for myocardial beat rate on addition of the drug: MEA 5 minutes after adding drug, Day 17. How it is done: iCell (registered trademark) Cardiomyocytes^2 was thawed according to “iCell Cardiomyocytes^2 User's Guide” to prepare myocardial cells C (purity of the myocardial cells 100%). In addition, myocardium-derived fibroblasts (NHCF-V human cardiac fibroblasts, Lonza, CC-2904) were added to the myocardial cells C to prepare myocardial cells with a purity of 25%, 50%, and 75%, respectively. Each of the prepared myocardial cells was dispersed at 1×10^6 cells/cm^2 and scattered on the seeding surface of the cells of the culture container 3 prepared in Example 1 to form a myocardial cell layer. The cells were cultured in the same manner as in Example 2, a beating frequency was measured, and stability of the TW was evaluated.
Using the myocardial cell C (the myocardial cell with a purity of 80%, which was obtained in the same manner as in Example 4) and the above-described culture container 3 (biodegradable fiber material), a myocardial cell layer was formed in the same manner as in Example 4. […] In addition, the beating frequency was measured up to Day 14 (TW). As a control, the beating frequency was measured in the same manner for those (Control) in which the TW was stopped by exchanging the culture medium with a culture medium at 4° C. on Day 2.
A culture container 3 (biodegradable fiber material) was created in the same manner as in Example 10. In addition, a culture container 3 (PC) was created in the same manner as for the culture container 3 (biodegradable fiber material), using polycarbonate (PC) porous membrane (Thermo Fisher Scientific, Inc., Nunc™ Polycarbonate Cell Culture Cell Inserts in Multi-Well Plates 140644) as a scaffold material. A myocardial cell layer was formed in the same manner as in Example 2, using the myocardial cells B, the culture container 3 (biodegradable fiber material), and the culture container 3 (PC). […] After Day 14, the electrical signal of myocardial spontaneous beating was measured by MEA by stopping the TW by exchanging the culture medium with a culture medium at 4° C. Specifically, data of extracellular Field Potentials (FPs) was recorded on a multielectrode array (MEA) system (USB-ME64-System, Multi Channel Systems, Germany).
A culture container 3 (biodegradable fiber material) was created in the same manner as in Example 10. Using the myocardial cell C (the myocardial cell with a purity of 80%, which was obtained in the same manner as in Example 4) and the above-described culture container 3 (biodegradable fiber material), a myocardial cell layer was formed in the same manner as in Example 4. Those in which the generated TW was stably maintained up to Day 14 (TW), and those in which TW was stopped by exchanging the culture medium with a culture medium at 4° C. on Day 2 (Control), that is, a total of two kinds were produced.

The structures appear in SMILES notation. Read-outs that look alike come from different tables or passages of the source.

On to `CC(=O)Oc1ccccc1C(=O)O` [aspirin], for which the “QT interval as the concentration increased” value was “decreased” and the “QT interval extension, TW compared with Control” value is given as “almost the same”. Further, the “myocardial beat rate reaction, TW compared with Control” value (MEA 5 minutes after drug) is given as “almost the same”.
Take `CC(C)NCC(O)c1ccc(O)c(O)c1` (centres unmarked) [isoproterenol]: the “myocardial beat rate on addition of the drug” value was “increased”. In addition, the “myocardial beat rate reaction, TW compared with Control” value (MEA 5 minutes after drug) is “more sensitive in reaction to isoproterenol as compared with Control”.
Take `Cc1cccc(C)c1OCC(C)N` (centres unmarked) [mexiletine]: under “TW layer (TW maintained up to Day 14) versus Control layer (TW stopped on Day 2), MEA 5 minutes after drug”, the “QT interval extension, TW compared with Control” value is listed as “smaller than Control”.
Consider `COc1ccc(CCN(C)CCCC(C#N)(c2ccc(OC)c(OC)c2)C(C)C)cc1OC` (centres unmarked) [verapamil], for which the “myocardial beat rate on addition of the drug” value is recorded as “increased”. Besides, the “myocardial beat rate reaction, TW compared with Control” value (MEA 5 minutes after drug) is recorded as “more sensitive in reaction to verapamil as compared with Control”.
